# Literature values as cited in US20260116844A1, “LIPID NANOPARTICLE FORMULATION COMPRISING IONIZED LIPIDS WITH BRANCHED STRUCTURE, AND USE THEREOF” (SurgiNex Co., Ltd., priority 2022, published 2026).
# Tested on: blood coagulation factor FVII
structure (smiles),measurement,setting,value
CCCCC/C=C\C/C=C\CCCCCCCCC(CCCCCCCC/C=C\C/C=C\CCCCC)OC(=O)CCCN(C)C [Dlin-MC3-DMA],ED50,"mouse FVII model, siRNA delivery",5 µg/kg
same,times more effective than existing ionized lipids,"mouse, in vivo",approximately 1000 times
